# Laboratory results from ChEMBL document CHEMBL5316301, “Dual Nicotinamide Phosphoribosyltransferase (NAMPT) and Indoleamine 2,3-Dioxygenase 1 (IDO1) Inhibitors for the Treatment of Drug-Resistant Nonsmall-Cell Lung Cancer” (J Med Chem, 2023).
# Active and inactive are the calls of the source. No cut-off for these calls is given here.
# Columns and labels:
# [1] = test system: A549; assay: Antiproliferative activity against NAMPT inhibitor-resistant A549 cells assessed as reduction in cell viability measured for 48 hrs by CCK-8 assay; details: Homo sapiens
# [2] = test system: A549; assay: Antitumor activity against NAMPT inhibitor-resistant A549 cells xenografted in athymic nude mouse assessed as tumor growth inhibition at 2 mg/kg, iv bid measured on day 21 by caliper method; type: functional, Homo sapiens; details: A549, 504 h, time 21 day, read-out: TGI
# [3] = molecular target: T1, Indoleamine 2,3-dioxygenase 1 (Homo sapiens, UniProt P14902); assay: Inhibition of human recombinant IDO1 assessed as reduction in N-formylkynurenine formation using L-tryptophan as substrate preincubated for 30 mins followed by substrate addition and measured after 10 mins by SpectraMax microplate reader analysis
# [4] = molecular target: T1, Indoleamine 2,3-dioxygenase 1; assay: Inhibition of human recombinant IDO1 in human HeLa cells assessed as reduction in N-formylkynurenine formation using L-tryptophan as substrate preincubated for 24 hrs followed by substrate addition and measured after 30 mins; type: cell-based
# [5] = test system: A549; assay: cells; details: Homo sapiens, A549, 48 h
# [6] = test system: A549; assay: Antiproliferative activity against NAMPT inhibitor-resistant A549 cells assessed as reduction in cell viability measured for 48 hrs in presence of epacadostat by CCK-8 assay; type: functional, cell-based; details: Homo sapiens, A549, 48 h
# [7] = test system: A549; assay: Downregulation of IDO1 expression in NAMPT inhibitor-resistant A549 cells measured for 24 hrs by Western blot analysis; type: functional, cell-based; details: Homo sapiens, dose 5-10 µM
# [8] = test system: A549; assay: Antimigratory activity against NAMPT inhibitor-resistant A549 cells assessed as reduction in cell migration at 40 uM incubated for 24 hrs in presence of FK866 by inverted microscopic analysis; type: functional, cell-based; details: Homo sapiens
# [9] = test system: A549; assay: cells; details: Homo sapiens, A549, 48 h; remark: listed apart in the source
# T1 sequence (P14902 whole entry): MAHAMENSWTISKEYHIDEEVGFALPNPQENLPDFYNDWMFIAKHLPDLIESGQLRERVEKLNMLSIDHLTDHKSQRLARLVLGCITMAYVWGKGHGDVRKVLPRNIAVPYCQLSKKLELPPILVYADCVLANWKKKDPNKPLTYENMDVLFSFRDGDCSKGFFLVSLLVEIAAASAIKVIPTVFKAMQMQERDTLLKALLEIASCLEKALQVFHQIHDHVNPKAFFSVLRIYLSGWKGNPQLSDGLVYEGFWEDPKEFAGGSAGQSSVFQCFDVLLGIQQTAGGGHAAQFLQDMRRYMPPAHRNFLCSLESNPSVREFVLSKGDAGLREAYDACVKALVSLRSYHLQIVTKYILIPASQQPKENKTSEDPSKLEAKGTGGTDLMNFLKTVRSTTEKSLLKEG
IC50 [3] [nM],IC50 [4] [nM],SMILES,further results
,,CC(=O)O[C@H]1C(=O)[C@@]2(C)[C@H]([C@H](OC(=O)c3ccccc3)[C@]3(O)C[C@H](OC(=O)[C@H](O)[C@@H](NC(=O)c4ccccc4)c4ccccc4)C(C)=C1C3(C)C)[C@]1(OC(C)=O)CO[C@@H]1C[C@@H]2O [PACLITAXEL],Activity [1]: Active; inhibition in vivo at 2 mg/kg [2]: 20.2%
> 1000,,O=C(NCc1ccc(C(=O)N2CCC(CCNc3nonc3/C(=N/O)Nc3ccc(F)c(Br)c3)CC2)cc1)c1ccc2nccn2c1,
835,677,O=C(NCCCCNc1nonc1/C(=N/O)Nc1ccc(F)c(Br)c1)c1ccc(CNC(=O)c2ccc3nccn3c2)cc1,
750,649,O=C(CCCCNc1nonc1/C(=N/O)Nc1ccc(F)c(Br)c1)Nc1ccc(CNC(=O)c2ccc3nccn3c2)cc1,
> 1000,,O=C(NCc1ccc(C(=O)N2CCC(CNc3nonc3/C(=N/O)Nc3ccc(F)c(Br)c3)CC2)cc1)c1ccc2nccn2c1,
,,O=C(/C=C/c1cccnc1)NCCCCC1CCN(C(=O)c2ccccc2)CC1 [DAPORINAD],IC50 [5]: 52.1 µM; IC50 [6]: 34.5 µM
151,161,O=C(CCNc1nonc1/C(=N/O)Nc1ccc(F)c(Br)c1)Nc1ccc(CNC(=O)c2ccc3nccn3c2)cc1,
,,NS(=O)(=O)NCCNc1nonc1/C(=N/O)Nc1ccc(F)c(Br)c1 [EPACADOSTAT],IC50 [5]: 61.1 µM; Activity [7]: inactive; Activity [8]: Active; IC50 [9]: 34.5 µM
